Data from the supplement of paper PMC10307832.

How the values were obtained:
Assay in all cases: relative viability (nuclei count vs DMSO), 5 days (fraction); higher = more cells survive
DM3189 = compound: C1CN(CCN1)C2=CC=C(C=C2)C3=CN4C(=C(C=N4)C5=CC=NC6=CC=CC=C56)N=C3 [DM3189]
Summary of the method: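 A plate was accepted only when its control CV was below 25% and the cells had doubled at least once. Viability is defined from nuclear counts as treated wells divided by vehicle wells, with the median taken across plates. That median covers lung cancer cell lines grown in 1536-well plates, dosed by pinning at five √10-spaced library-drug concentrations, and counted in MetaXpress from 4× Hoechst images after 5 days.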

DM3189 + Vorinostat = compound: C1CN(CCN1)C2=CC=C(C=C2)C3=CN4C(=C(C=N4)C5=CC=NC6=CC=CC=C56)N=C3 [DM3189] + O=C(CCCCCCC(=O)Nc1ccccc1)NO [Vorinostat] (partner 1 µM)
Summary of the method: (§1)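 The day after seeding in 1536-well plates, lung cancer cell lines were treated by pin tool with a single drug, or with a fixed anchor-drug dose together with five library-drug doses (not always all listed) in √10 steps. After 5 days, a combined fix-and-stain solution (final 0.05% Triton X-100, 1% formaldehyde, 1 ug/ml Hoechst) was added. Nuclei counted on 4× images gave relative viability as treated counts over vehicle counts, reported as the median of duplicate plates.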

DM3189 + Lapatinib = compound: C1CN(CCN1)C2=CC=C(C=C2)C3=CN4C(=C(C=N4)C5=CC=NC6=CC=CC=C56)N=C3 [DM3189] + CS(=O)(=O)CCNCc1ccc(-c2ccc3ncnc(Nc4ccc(OCc5cccc(F)c5)c(Cl)c4)c3c2)o1 [Lapatinib] (partner 2 µM)
Summary of the method: as §1

DM3189 + Trametinib = compound: C1CN(CCN1)C2=CC=C(C=C2)C3=CN4C(=C(C=N4)C5=CC=NC6=CC=CC=C56)N=C3 [DM3189] + CC(=O)Nc1cccc(-n2c(=O)n(C3CC3)c(=O)c3c(Nc4ccc(I)cc4F)n(C)c(=O)c(C)c32)c1 [Trametinib] (partner 0.02 µM)
Summary of the method: as §1

DM3189 + AZD7762 = compound: C1CN(CCN1)C2=CC=C(C=C2)C3=CN4C(=C(C=N4)C5=CC=NC6=CC=CC=C56)N=C3 [DM3189] + NC(=O)Nc1cc(-c2cccc(F)c2)sc1C(=O)N[C@H]1CCCNC1 [AZD7762] (partner 0.2 µM)
Summary of the method: as §1

Row | Cell Line | relative viability (DM3189; 0.08 µM) | relative viability (DM3189; 0.253 µM) | relative viability (DM3189; 0.8 µM) | relative viability (DM3189; 2.53 µM) | relative viability (DM3189 + Vorinostat; first compound 0.08 µM) | relative viability (DM3189 + Vorinostat; first compound 0.253 µM) | relative viability (DM3189 + Vorinostat; first compound 0.8 µM) | relative viability (DM3189 + Vorinostat; first compound 2.53 µM) | relative viability (DM3189 + Lapatinib; first compound 0.08 µM) | relative viability (DM3189 + Lapatinib; first compound 0.253 µM) | relative viability (DM3189 + Lapatinib; first compound 0.8 µM) | relative viability (DM3189 + Lapatinib; first compound 2.53 µM) | relative viability (DM3189 + Trametinib; first compound 0.08 µM) | relative viability (DM3189 + Trametinib; first compound 0.253 µM) | relative viability (DM3189 + Trametinib; first compound 0.8 µM) | relative viability (DM3189 + Trametinib; first compound 2.53 µM) | relative viability (DM3189 + AZD7762; first compound 0.08 µM) | relative viability (DM3189 + AZD7762; first compound 0.253 µM) | relative viability (DM3189 + AZD7762; first compound 0.8 µM) | relative viability (DM3189 + AZD7762; first compound 2.53 µM)
1 | HARA | 1.07 | 0.921 | 1.01 | 1.04 | 0.596 | 0.539 | 0.606 | 0.622 | 0.93 | 0.625 | 0.6 | 0.856 | 0.674 | 0.736 | 0.712 | 0.944 | 0.263 | 0.364 | 0.161 | 0.302
2 | EMC-BAC-2 | 1.09 | 0.898 | 0.936 | 1.22 | 0.53 | 0.439 | 0.477 | 0.741 | 0.894 | 0.888 | 0.859 | 0.934 | 0.925 | 0.877 | 0.891 | 1.04 | 1.26 | 1.03 | 0.976 | 1.05
3 | PC-3 [JPC-3] | 1.13 | 1.01 | 1.04 | 1.1 | 1.08 | 0.736 | 0.921 | 0.898 | 0.436 | 0.456 | 0.431 | 0.439 | 0.75 | 0.776 | 0.722 | 0.788 | 0.957 | 0.884 | 0.814 | 0.791
4 | NCI-H596 | 1.13 | 0.85 | 1.05 | 0.996 | 0.606 | 0.669 | 0.605 | 0.756 | 1.19 | 1.06 | 0.799 | 0.99 | 0.814 | 0.842 | 0.901 | 0.847 | 1.15 | 1.07 | 1.08 | 0.986
5 | NCI-H1755 | 0.989 | 0.987 | 0.811 | 1.04 | 0.771 | 0.659 | 0.695 | 0.685 | 1.07 | 0.937 | 0.811 | 0.936 | 0.786 | 0.801 | 0.725 | 0.836 | 0.482 | 0.455 | 0.615 | 0.372
6 | NCI-H2126 | 1.12 | 1.01 | 0.961 | 0.942 | 0.998 | 0.769 | 0.742 | 0.705 | 0.869 | 0.775 | 0.673 | 0.732 | 0.609 | 0.534 | 0.509 | 0.524 | 1.05 | 1.07 | 0.968 | 1.01
7 | NCI-H2085 | 1 | 0.933 | 1.04 | 1.03 | 0.87 | 0.742 | 0.795 | 0.906 | 0.806 | 0.77 | 0.765 | 0.848 | 0.521 | 0.613 | 0.598 | 0.668 | 0.994 | 1.06 | 0.965 | 1.03
8 | CAL-12T | 1.06 | 0.927 | 0.975 | 1.09 | 0.683 | 0.785 | 0.878 | 0.743 | 0.623 | 0.675 | 0.616 | 0.947 | 0.405 | 0.339 | 0.384 | 0.488 | 0.533 | 0.629 | 0.585 | 0.684
9 | NCI-H2087 | 1.26 | 1.02 | 1.08 | 0.979 | 0.63 | 0.49 | 0.682 | 0.471 | 1.27 | 0.871 | 0.846 | 1.06 | 0.24 | 0.17 | 0.228 | 0.219 | 1.42 | 1.23 | 1.38 | 1.1
10 | LCLC-97TM1 | 1.06 | 0.806 | 0.797 | 0.644 | 0.73 | 0.647 | 0.687 | 0.751 | 0.744 | 0.488 | 0.416 | 0.755 | 0.211 | 0.198 | 0.205 | 0.216 | 0.275 | 0.177 | 0.207 | 0.171
11 | 201T | 0.981 | 0.981 | 0.843 | 1.04 | 1.03 | 0.899 | 0.943 | 1.12 | 1.06 | 1.03 | 0.998 | 1.03 | 0.729 | 0.743 | 0.728 | 0.734 | 0.717 | 0.639 | 0.611 | 0.537
12 | NCI-H1915 | 1.03 | 0.942 | 0.793 | 0.87 | 0.49 | 0.508 | 0.383 | 0.482 | 1 | 0.867 | 0.705 | 0.737 | 0.325 | 0.292 | 0.305 | 0.307 | 0.708 | 0.639 | 0.521 | 0.637
13 | BEN | 0.929 | 0.925 | 0.967 | 0.981 | 0.609 | 0.547 | 0.541 | 0.636 | 0.707 | 0.699 | 0.703 | 0.708 | 0.982 | 1.01 | 1.11 | 1.21 | 0.76 | 0.646 | 0.702 | 0.738
14 | NCI-H2405 | 1.1 | 0.975 | 0.951 | 1.03 | 1.16 | 1 | 0.942 | 0.992 | 1.14 | 1.01 | 0.979 | 0.958 | 0.669 | 0.615 | 0.614 | 0.579 | 0.727 | 0.665 | 0.645 | 0.704
15 | H3255 | 1.18 | 0.979 | 0.899 | 1.13 | 1.11 | 0.826 | 0.845 | 0.89 | 0.259 | 0.267 | 0.224 | 0.277 | 0.789 | 0.731 | 0.513 | 0.732 | 1.14 | 0.883 | 0.88 | 0.943
